Data reported in patent publication US9981972B2, “N-hydroxy bicyclic hydantoin carbamates as tools for identification of serine hydrolase targets” (ABIDE THERAPEUTICS, INC., priority 2014, dated 2018).
“Also recorded” adds a separate entry of the source.

Assays:
[1] = system: other SHs (anti-targets) in mouse tissues; assay: Inhibition by gel-based competitive ABPP in vivo, other SHs; settings: 4 h
Procedure: In this assay, test compounds were administered to mice. Mice were sacrificed, and their tissues harvested, homogenized, and the soluble fractions isolated, reacted with FP-Rh, and separated by SDS-PAGE as described above.
Protocol Summary: Purpose-bred 3-4 month old male C57BL6 laboratory mice were i.p. administered test compound (0.5-50 mg/kg in 18:1:1 saline:PEG-40-castor oil:EtOH vehicle solution, 10 μL/g mouse weight) or vehicle only. After 4 hours, mice were humanely sacrificed (anesthetized with isoflurane followed by cervical dislocation), and tissues (liver, kidney, brain) removed and snap frozen in liquid nitrogen before processing. Tissues were homogenized, and soluble proteome isolated by ultracentrifugation (100 k×g, 45 minutes) and protein concentration adjusted to 1 mg/mL in DPBS. An aliquot (50 μL) was reacted with FP-Rh (2 μM final concentration) for 30 minutes at 25° C. Reactions were quenched with 16 μL 4×SDS-PAGE loading buffer (reducing), separated by SDS-PAGE, and visualized by in-gel fluorescent scanning. The percentage activity remaining was determined by measuring the integrated optical density of test compound bands relative to vehicle bands. Note: Due to the overlapping nature of LYPLA1 and LYPLA2 bands, the proteins were quantified together.
The in vivo inhibitory activity of Compound 1 was assessed. For this experiment, mice were administered test compound (0.5-50 mg/kg, i.p.) or vehicle only. After four hours mice were sacrificed and their tissues removed, homogenized, and the soluble fractions isolated and labeled with FP-Rh followed by SDS-PAGE and fluorescent detection of FP-labeled SHs (see FIG. 3B).
Compound 26, Compound 34, and Compound 1 were administered across a dose range of 1-40 mg/kg to C57BL6 mice by intraperitoneal injection, and, after 4 hours, animals were sacrificed and tissues harvested for analysis by gel-based ABPP using the FP-Rh probe and the Compound 39 probe.

[2] = system: FP-sensitive SHs in the mouse brain membrane proteome; assay: Gel-based competitive ABPP in vitro, mouse brain membrane proteome, anti-targets; type: biochemical
Outline: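 Mouse brain membrane proteome (1 mg/mL in DPBS) was treated with compound (0.1-100 μM) for 30 min at 37 °C, then labeled with FP-Rh (2 μM final, 30 min, 25 °C). Bands were resolved by SDS-PAGE and scanned in-gel, with inhibition taken from band optical density versus DMSO. Targets counted as active or anti-targets at ≥50% inhibition.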

## COc1ccc(N2CCN(C(=O)ON3C(=O)C4CN(CC5CCN(Cc6ccccc6)CC5)CCN4C3=O)CC2)cc1 (stereo not shown) [Compound 26, 7-((1-benzylpiperidin-4-yl)methyl)-1,3-dioxohexahydroimidazo[1,5-a]pyrazin-2(3H)-yl 4-(4-methoxyphenyl)piperazine-1-carboxylate]
[1]; 1-40 mg/kg i.p., brain and testis, FP-Rh or Compound 39 probe
  inhibition of other SHs in vivo: did not inhibit other SHs

## O=C(ON1C(=O)C2CN(Cc3ccc(Oc4ccccc4)cc3)CCN2C1=O)N1CCC(c2ccccc2)CC1 (stereo not shown) [Compound 38, 1,3-dioxo-7-(4-phenoxybenzyl)hexahydroimidazo[1,5-a]pyrazin-2(3H)-yl 4-phenylpiperidine-1-carboxylate]
[2]; mouse brain membrane SHs, FIG. 7B
  concentration-dependent profiling, ABHD3 and ABHD4: promising lead inhibitor for ABHD3 and ABHD4

## O=C(ON1C(=O)C2CN(C(=O)N3CCOCC3)CCN2C1=O)N1CCC(CCc2ccc(Cl)cc2)CC1 (stereo not shown) [Compound 1, 7-(morpholine-4-carbonyl)-1,3-dioxohexahydroimidazo[1,5-a]pyrazin-2(3H)-yl 4-(4-chloro-phenethyl)piperidine-1-carboxylate]
[2]; SHs with at least 50% inhibition at 1 μM compound
  Anti-target(s) 1 μM: ABHD6
[2]; SHs with at least 50% inhibition at 10 μM compound
  Anti-target(s) 10 μM: FAAH,; also recorded: ABHD6
[2]; SHs with at least 50% inhibition at 100 μM compound
  Anti-target(s) 100 μM: FAAH,; also recorded: ABHD12,; also recorded: MAGL,; also recorded: ABHD6
[1]; 0.5-50 mg/kg i.p., any tissue, ABHD6 not visible
  anti-target inhibition in vivo: no significant anti-target inhibition
[1]; 1-40 mg/kg i.p.
  cross-reactivity with other SHs in vivo: limited cross-reactivity with other SHs
